This note sets out measurements from US20240228489A1, “POSITIVE ALLOSTERIC MODULATORS OF THE MUSCARINIC ACETYLCHOLINE RECEPTOR M1” (Vanderbilt University, priority 2021, published 2024).

In assay [1] the target is T1, human mAChR M1 (Homo sapiens, UniProt P11229).
T1 sequence (P11229 1-460): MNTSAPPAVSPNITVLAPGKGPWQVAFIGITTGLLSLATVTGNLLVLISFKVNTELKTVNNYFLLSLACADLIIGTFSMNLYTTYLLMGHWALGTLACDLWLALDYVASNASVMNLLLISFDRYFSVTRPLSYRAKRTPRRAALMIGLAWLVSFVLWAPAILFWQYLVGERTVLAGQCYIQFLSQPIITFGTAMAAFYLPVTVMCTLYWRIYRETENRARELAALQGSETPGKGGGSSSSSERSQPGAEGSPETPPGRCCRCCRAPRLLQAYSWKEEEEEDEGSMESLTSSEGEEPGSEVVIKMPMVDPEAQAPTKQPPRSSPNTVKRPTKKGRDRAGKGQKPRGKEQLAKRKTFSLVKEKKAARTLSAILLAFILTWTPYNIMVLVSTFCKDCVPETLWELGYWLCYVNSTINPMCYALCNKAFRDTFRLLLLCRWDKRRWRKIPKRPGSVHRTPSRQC
The experiment in a line: mAChR M1 cell-based functional assay (calcium mobilization), agonist mode: compound alone, Emax relative to acetylcholine maximum. Conditions: for Agonist Activity Human M1 EC50 / EC50: human mAChR M1; for Emax: relative to the maximum for acetylcholine; call rule not given here. Summed up: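 CHO-K1 cells stably expressing hM1 were loaded with Fluo-4 AM, and calcium flux was read as fluorescence ratio. Compound was added alone from an 11-point 1:3 curve, and the agonist response was fitted with a four-parameter logistic. Emax is expressed relative to the acetylcholine maximum.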

Assay [2] deals with T1, human mAChR M1. Briefly: mAChR M1 cell-based functional assay (calcium mobilization), PAM mode: increase in the EC20 acetylcholine response. The essentials: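 CHO-K1 cells stably expressing hM1, Fluo-4 loaded, read by FDSS calcium flux at 1 Hz. Compound (11-point 1:3 CRC) added at 4 s, EC20 acetylcholine at 144 s, EC80 at 230 s. PAM activity taken as concentration-dependent increase in EC20 ACh response, fitted by four-parameter logistic for EC50/Emax.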

As to `[2H]C1([2H])c2ncccc2C(=O)N1Cc1ccc(-c2cc3cn(C)nc3cc2C)cc1` [Compound 16, 6-(4-(2,6-dimethyl-2H-indazol-5-yl)benzyl)-6,7-dihydro-5H-pyrrolo[3,4-b]pyridin-5-one-7,7-d2], at human mAChR M1 [1], the “Agonist Activity Human M1 EC50” value is on record as “Inactive” and the Emax was found to be 3%. Further, at human mAChR M1 [2], the EC50 is over 10 µM and the Emax is 55%.

As to `[2H]C1([2H])c2ncccc2C(=O)N1Cc1c(F)cc(-c2ccc(C)c3c2cnn3C([2H])([2H])[2H])cc1F` [Compound 70, 6-(2,6-difluoro-4-(7-methyl-1-(methyl-d3)-1H-indazol-4-yl)benzyl)-6,7-dihydro-5H-pyrrolo[3,4-b]pyridin-5-one-7,7-d2], on human mAChR M1 [1], the “Agonist Activity Human M1 EC50” value was “Inactive” and the Emax turned out to be 2%. Besides, at human mAChR M1 [2], the EC50 was 1.22 µM and the Emax turned out to be 65%.

With `[2H]C1([2H])c2ncccc2C(=O)N1Cc1ccc(-c2cc(F)cc3nn(C)cc23)cc1C` [Compound 84, 6-(4-(6-fluoro-2-methyl-2H-indazol-4-yl)-2-methylbenzyl)-6,7-dihydro-5H-pyrrolo[3,4-b]pyridin-5-one-7,7-d2], at human mAChR M1 [1], the “Agonist Activity Human M1 EC50” value was “Inactive” and the Emax is 2%. In addition, at human mAChR M1 [2], the EC50 is 1.24 µM and the Emax turned out to be 74%.

Take `[2H]C1([2H])c2ncccc2C(=O)N1Cc1ccc(-c2ccc3cn(C)nc3c2)cc1` [Compound 14, 6-(4-(2-methyl-2H-indazol-6-yl)benzyl)-6,7-dihydro-5H-pyrrolo[3,4-b]pyridin-5-one-7,7-d2]: on human mAChR M1 [1], the “Agonist Activity Human M1 EC50” value was “Inactive” and the Emax amounted to 2%. Moreover, on human mAChR M1 [2], the EC50 amounted to 6.8 µM and the Emax amounted to 77%.

On to `[2H]C1([2H])c2ncccc2C(=O)N1Cc1ccc(-c2ccc(OCC)c3nn(C)cc23)cc1F` [Compound 108, 6-(4-(7-ethoxy-2-methyl-2H-indazol-4-yl)-2-fluorobenzyl)-6,7-dihydro-5H-pyrrolo[3,4-b]pyridin-5-one-7,7-d2], for which, on human mAChR M1 [1], the “Agonist Activity Human M1 EC50” value was “Inactive” and the Emax is 8%. At human mAChR M1 [2], the EC50 turned out to be 0.381 µM and the Emax was determined as 74%.

For `[2H]C1([2H])c2ncccc2C(=O)N1Cc1c(F)cc(-c2cccc3c2cnn3C2COC2)cc1F` [Compound 66, 6-(2,6-difluoro-4-(1-(oxetan-3-yl)-1H-indazol-4-yl)benzyl)-6,7-dihydro-5H-pyrrolo[3,4-b]pyridin-5-one-7,7-d2], at human mAChR M1 [1], the “Agonist Activity Human M1 EC50” value was “Inactive” and the Emax is 2%. Moreover, on human mAChR M1 [2], the EC50 was found to be 2.17 µM and the Emax stood at 74%.

As to `[2H]C1([2H])c2ncccc2C(=O)N1Cc1c(F)cc(-c2ccc(OC3CCOC3)c3nn(C([2H])([2H])[2H])cc23)cc1F` (stereo not shown) [Compound 128, 6-(2,6-difluoro-4-(2-(methyl-d3)-7-((tetrahydrofuran-3-yl)oxy)-2H-indazol-4-yl)benzyl)-6,7-dihydro-5H-pyrrolo[3,4-b]pyridin-5-one-7,7-d2], the EC50 was determined as 6.07 µM at human mAChR M1 [1] and 0.428 µM on human mAChR M1 [2]. Further, the Emax at human mAChR M1 [1] turned out to be 18%; at human mAChR M1 [2], 63%.

For the compound `[2H]C1([2H])c2ncccc2C(=O)N1Cc1c(F)cc(-c2ccc(SC)c3nn(C)cc23)cc1F` [Compound 181, 6-(2,6-difluoro-4-(2-methyl-7-(methylthio)-2H-indazol-4-yl)benzyl)-6,7-dihydro-5H-pyrrolo[3,4-b]pyridin-5-one-7,7-d2], on human mAChR M1 [1], the “Agonist Activity Human M1 EC50” value is reported as “Inactive” and the Emax was found to be 9%. Further, at human mAChR M1 [2], the EC50 was 0.475 µM and the Emax came to 82%.

For the compound `[2H]C1([2H])c2ncccc2C(=O)N1Cc1c(F)cc(-c2cccc3c2cnn3C(C)C)cc1F` [Compound 64, 6-(2,6-difluoro-4-(1-isopropyl-1H-indazol-4-yl)benzyl)-6,7-dihydro-5H-pyrrolo[3,4-b]pyridin-5-one-7,7-d2], on human mAChR M1 [1], the “Agonist Activity Human M1 EC50” value was “Inactive” and the Emax came to 2%. Further, at human mAChR M1 [2], the EC50 was 1.84 µM and the Emax is 79%.

For `[2H]C1([2H])c2ncccc2C(=O)N1Cc1c(F)cc(-c2cccc3c2cnn3C(F)F)cc1F` [Compound 243, 6-(4-(1-(difluoromethyl)-1H-indazol-4-yl)-2,6-difluorobenzyl)-6,7-dihydro-5H-pyrrolo[3,4-b]pyridin-5-one-7,7-d2], on human mAChR M1 [1], the “Agonist Activity Human M1 EC50” value is “Inactive” and the maximum response (Emax) turned out to be 5%. In addition, on human mAChR M1 [2], the EC50 is over 10 µM and the maximal response (Emax) was determined as 34%.

With `[2H]C1([2H])c2ncccc2C(=O)N1Cc1ccc(-c2cnc3nn(C([2H])([2H])[2H])cc3c2)cc1F` [Compound 118, 6-(2-fluoro-4-(2-(methyl-d3)-2H-pyrazolo[3,4-b]pyridin-5-yl)benzyl)-6,7-dihydro-5H-pyrrolo[3,4-b]pyridin-5-one-7,7-d2], the concentration for a half-maximal effect (EC50) on human mAChR M1 [1] is at least 10 µM; on human mAChR M1 [2] it was 0.527 µM. Further, the Emax on human mAChR M1 [1] was 16%; at human mAChR M1 [2], 66%.

With `[2H]C([2H])([2H])Oc1cnc2c(c1)C(=O)N(Cc1ccc(-c3ccc4nn(C)cc4c3)cc1F)C2([2H])[2H]` [Compound 111, 6-(2-fluoro-4-(2-methyl-2H-indazol-5-yl)benzyl)-3-(methoxy-d3)-6,7-dihydro-5H-pyrrolo[3,4-b]pyridin-5-one-7,7-d2], at human mAChR M1 [1], the “Agonist Activity Human M1 EC50” value is “Inactive” and the Emax was found to be 2%. Further, on human mAChR M1 [2], the EC50 worked out at 0.161 µM and the maximal response (Emax) stood at 65%.

As for `[2H]C1([2H])c2ncccc2C(=O)N1Cc1ccc(-c2ccc(OC(F)(F)F)c3nn(C)cc23)cc1F` [Compound 110, 6-(2-fluoro-4-(2-methyl-7-(trifluoromethoxy)-2H-indazol-4-yl)benzyl)-6,7-dihydro-5H-pyrrolo[3,4-b]pyridin-5-one-7,7-d2], at human mAChR M1 [1], the “Agonist Activity Human M1 EC50” value is listed as “Inactive” and the maximal response (Emax) came to 4%. Further, on human mAChR M1 [2], the EC50 stood at 1.44 µM and the Emax is 71%.

Regarding `[2H]C1([2H])c2ncccc2C(=O)N1Cc1c(F)cc(-c2ccc(OC3CN(C(C)C)C3)c3nn(C)cc23)cc1F` [Compound 180, 6-(2,6-difluoro-4-(7-((1-isopropylazetidin-3-yl)oxy)-2-methyl-2H-indazol-4-yl)benzyl)-6,7-dihydro-5H-pyrrolo[3,4-b]pyridin-5-one-7,7-d2], on human mAChR M1 [1], the “Agonist Activity Human M1 EC50” value was “Inactive” and the Emax was determined as 9%. For the same compound, at human mAChR M1 [2], the EC50 is 0.297 µM and the Emax stood at 85%.

On to `[2H]C1([2H])c2ncccc2C(=O)N1Cc1c(F)cc(-c2cccc3nn(CC)cc23)cc1F` [Compound 42, 6-(4-(2-ethyl-2H-indazol-4-yl)-2,6-difluorobenzyl)-6,7-dihydro-5H-pyrrolo[3,4-b]pyridin-5-one-7,7-d2], for which, at human mAChR M1 [1], the EC50 was over 10 µM and the Emax amounted to 13%. Further, at human mAChR M1 [2], the EC50 was determined as 0.371 µM and the maximal response (Emax) stood at 81%.

For `[2H]C1([2H])c2ncccc2C(=O)N1Cc1c(F)cc(-c2cnc3nn(C([2H])([2H])[2H])cc3c2)cc1F` [Compound 115, 6-(2,6-difluoro-4-(2-(methyl-d3)-2H-pyrazolo[3,4-b]pyridin-5-yl)benzyl)-6,7-dihydro-5H-pyrrolo[3,4-b]pyridin-5-one-7,7-d2], on human mAChR M1 [1], the “Agonist Activity Human M1 EC50” value is reported as “Inactive” and the Emax is 6%. Besides, at human mAChR M1 [2], the EC50 is 0.68 µM and the Emax was found to be 68%.

`[2H]C1([2H])c2ncccc2C(=O)N1Cc1ccc(-c2ccc(O[C@H]3CCOC3)c3nn(C)cc23)cc1F` [Compound 144, (S)-6-(2-fluoro-4-(2-methyl-7-((tetrahydrofuran-3-yl)oxy)-2H-indazol-4-yl)benzyl)-6,7-dihydro-5H-pyrrolo[3,4-b]pyridin-5-one-7,7-d2]: at human mAChR M1 [1], the EC50 was at least 10 µM and the Emax came out at 18%. For the same compound, on human mAChR M1 [2], the EC50 turned out to be 0.751 µM and the Emax stood at 75%.

For `[2H]C1([2H])c2ncccc2C(=O)N1Cc1ccc(-c2cc3cn(C)nc3cc2F)cc1` [Compound 15, 6-(4-(6-fluoro-2-methyl-2H-indazol-5-yl)benzyl)-6,7-dihydro-5H-pyrrolo[3,4-b]pyridin-5-one-7,7-d2], on human mAChR M1 [1], the “Agonist Activity Human M1 EC50” value was “Inactive” and the Emax turned out to be 2%. Moreover, on human mAChR M1 [2], the EC50 was found to be 1.77 µM and the Emax is 51%.

For `[2H]C1([2H])c2ncccc2C(=O)N1Cc1c(F)cc(-c2ccc(OCC3CCCO3)c3nn(C)cc23)cc1F` (stereo not shown) [Compound 134, 6-(2,6-difluoro-4-(2-methyl-7-((tetrahydrofuran-2-yl)methoxy)-2H-indazol-4-yl)benzyl)-6,7-dihydro-5H-pyrrolo[3,4-b]pyridin-5-one-7,7-d2], at human mAChR M1 [1], the EC50 is at least 10 µM and the Emax was found to be 23%. Also, on human mAChR M1 [2], the EC50 turned out to be 0.701 µM and the Emax is 75%.
